Assay [1] has as its system P. falciparum W2 (chloroquine and pyrimethamine resistant). Description: in vitro antimalarial activity against W2. The assay is classed as cell-based. The conditions noted are these: for EC50: Plasmodium falciparum; for antimalarial activity in words: W2; for fold decrease in antimalarial activity: W2, compared to compound 5; for times less active against W2: in comparison to reference compound 17.

The subject of assay [2] is P. berghei. As to conditions: rodent malaria models; cited from earlier work.
The subject of assay [3] is P. falciparum TM90-C2B (chloroquine, mefloquine, pyrimethamine and atovaquone resistant). Description: in vitro antimalarial activity against TM90-C2B. It is filed as cell-based. The conditions noted are these: for EC50: Plasmodium falciparum; for antimalarial activity in words / fold decrease in antimalarial activity: TM90-C2B; for fold more potent against TM90-C2B: compared to compound 27; for fold decrease in antimalarial activity: compared to compound 5.

Where two headings read alike, the source gives them in different places. A value given as a limit tells only on which side of the number the result lay.

`CCCCc1cc2c(=O)c(C(=O)OC)c[nH]c2cc1OCCOc1ccccc1` [Compound 5, reference compound]: the “fold stronger inhibition of W2 than TM90-C2B” value in assay [1] (W2 versus TM90-C2B) is given as “approximately 220 fold”. Moreover, the “ED50, causal prophylactic and blood schizonticidal activity” value in assay [2] is on record as 0.05 mg/kg.

As usually defined, the EC50 is the concentration needed to bring the measured effect to its halfway point. As to `C[C@H]1[C@@H](O)O[C@@H]2O[C@@]3(C)CC[C@H]4[C@H](C)CC[C@@H]1[C@@]24OO3` [DHA, Dihydroartemisinin, reference compound], the 50% effective concentration (EC50) is 1.8 nM in assay [1] (W2, read-out: EC50 W2); 0.9 nM in assay [3] (TM90, read-out: EC50 TM90-C2B, Table 1, PEQ analogs); 0.9 nM in assay [3] (TM90, read-out: EC50 TM90-C2B, Table 2, 3-aryl PEQs).

Take `O=C1C(O)=C([C@H]2CC[C@H](c3ccc(Cl)cc3)CC2)C(=O)c2ccccc21` [ATO, atovaquone, reference compound]: the 50% effective concentration (EC50) in assay [1] (W2, read-out: EC50 W2, Table 1, PEQ analogs) was 0.53 nM; in assay [1] (W2, read-out: EC50 W2, Table 2, 3-aryl PEQs), 0.53 nM.

`CCCCc1cc2c(=O)c(-c3ccncc3)c(C)[nH]c2cc1OCCOc1ccccc1` [Compound 32]: the “antimalarial activity in words” value in assay [1] and in assay [3] was “moderate activity in low μM or high nM range” in each case.

As to `CCc1c(C)[nH]c2cc(OCCOc3ccccc3)c(C)cc2c1=O` [Compound 18], the “fold more potent against TM90-C2B” value in assay [3] was “approximately 3 fold”.

For `CCCCc1cc2c(=O)cc(C)[nH]c2cc1OCCOc1ccccc1` [Compound 15], the “fold decrease in antimalarial activity” value in assay [1] came to 4000 fold; in assay [3], 4 fold.

In the case of `CCCCc1cc2c(=O)c(-c3cccnc3)c(C)[nH]c2cc1OCCOc1ccccc1` [Compound 33], the “antimalarial activity in words” value in assay [1] and in assay [3] was “moderate activity in low μM or high nM range” each time.

Regarding `COC(=O)c1c[nH]c2cc(OC)c(Cl)cc2c1=O` [Compound 14], the “fold decrease in antimalarial activity” value in assay [1] and in assay [3] was at least 70 fold each time.

As for `CCc1c(C)[nH]c2cc(OCOC)c(Cl)cc2c1=O` [Compound 20], in assay [1], the “times less active against W2” value is given as “approximately four-fold less active”.

For the compound `CCCCc1cc2c(=O)c(-c3c(C)noc3C)c(C)[nH]c2cc1OCCOc1ccccc1` [Compound 43], in assay [3], the “antimalarial activity in words” value is “approximately five times less potent”.

In the case of `CCc1c(C)[nH]c2cc(OCCCN3CCN(c4ccccc4)CC3)c(Cl)cc2c1=O` [Compound 26], the “times less active against W2” value in assay [1] is given as “approximately four-fold less active”.

As for `CCc1c(C)[nH]c2cc(OCCOc3ccccc3)c(OC)cc2c1=O` [Compound 19], the “fold more potent against TM90-C2B” value in assay [3] was “approximately 3 fold”.

The values above are taken from PMC9247345 (Journal of medicinal chemistry, 2011).
